{"source": "patent US20090069441A1", "about": "“Motuporamine Mimic Agents” (priority 2006, published 2009)", "key": {"[1]": {"test_system": "CHO cells", "conditions": "data originally reported in Ref, cited from earlier work; for IC50: 48 h incubation"}, "[2]": {"test_system": "L1210 cells", "conditions": "48 h incubation; data originally reported in Ref; cited from earlier work"}, "[3]": {"target": "polyamine transporter (PAT)", "conditions": "data originally reported in Ref; read-out: L1210 Ki value; cited from earlier work"}, "[4]": {"test_system": "CHO-MG cells", "conditions": "48 h incubation; data originally reported in Ref; cited from earlier work"}, "[5]": {"test_system": "Drosophila imaginal leg discs", "test": "Imaginal disc eversion assay", "type": "cell-based, Drosophila melanogaster", "conditions": "Drosophila melanogaster, 15 hr incubation in Robb's medium", "experimental": "DihydroMotuporamine C, 4a, was used to develop an imaginal disc assay in Drosophila flies. The imaginal leg discs were collected by microscopic dissection from maggots. […] Inhibition was measured as failure of the disc to fully develop into a fly leg after 15 hr of incubation in Robb's growth medium. This presumably occurs by overactivation of Rho, an important signaling pathway in development. Hyper-stimulation of this pathway is sufficient to block development of the fly leg.\nFly Stocks: 20 female and 5 male wild type Oregon variant of Drosophila melanogaster interbred in blue food medium for 24 hours then flies are removed. Third instar wall-crawling larvae collected then dissected on the sixth day. Flies kept in 25° C. incubation chamber.\nBlue Food Preparation: Standard corn meal medium heated then mixed completely with aqueous 1% Bromophenol Blue. The food medium is cooled for one day or more before use.\nDissection Medium: Ringer's Buffer with 10 uL 0.1% BSA. Ringer's Medium consists of 130 mM NaCl, 5 mM KCl, 1.5 mM CaCl2-2H2O, Stored at room temperature (23° C.), BSA added before dissection.\nCultivation Medium: Minimal Robb's Medium with 10 uL 0.1% BSA. Minimal Robb's Medium consists of 40 mM KCl, 0.4 mM KH2PO4, 40 mM NaCl, 0.4 mM NaH2PO4.7H2O, 1.2 mM MgSO4.7H2O, 1.2 mM MgCl2-6H2O, 1 mM CaCl2-2H2O, 10 mM Glucose, 0.2 mM L-asparagine, 4.0 mM L-glutamine, 0.16 mM Glycine, 0.64 mM L-leucine, 0.32 mM L-proline, 0.16 mM R-Serine, 0.64 mM L-valine. Stored at −25° C. One day before dissection, aliquot defrosted in 4° C. Add BSA then warmed to room temperature (23° C.) before dissection.\n0.1% BSA: 0.1 g BSA fraction V (Sigma#A-9647) in 10 mL distilled H2O, Stored at 4° C.\nDevelopmental Hormone: 1 mg 20-hydroxyecdysone (Sigma #H-5142) in 1 mL 100% Ethanol. Stored at −25° C. Before use, stock is diluted 10× (1 mL added to 9 mL of 100% Ethanol). 10 μL of diluted 20-hydroxyecdysone is added to culture.\nDissection Procedures: Third instar larvae are removed from cultivation bottle with a wetted brush and washed in dH2O to remove food medium clinging to larvae. The cleaned larvae are dissected in Ringer's Medium using forceps. The imaginal discs are washed in fresh Ringer's Medium, and then cultivated with 1 mL of Robb's Medium in 12-well culture plate. Each culture well should have 30˜40 imaginal discs.\nCulturing Procedures: In a larger container, place the 12-well culture plate on a moist towel, then seal the large container. Cultivate at 25° C. for 15 hours. Evaluation: Three categories will be used to grade the eversion of each imaginal disc. Full Eversion—the leg is fully extended from the disc. Partial Eversion—the leg is protruding from the epithelial. No Eversion—no sign of any protrusion."}, "[6]": {"test_system": "L1210 cells", "test": "Cytotoxicity (cell growth, MTT) in L1210 cells", "type": "cell-based, mouse", "conditions": "Mus musculus; L1210 experiments, no added SPD; read-out: L1210 IC50", "description": "In terms of Table 1, L1210 cells are mouse leukemia cells and are the gold standard in terms of evaluating polyamine cytotoxicity data due to a plethora of prior data in this cell line for other polyamine structures. Clearly 7a was similar in all respects to 4a (Table 1). […] The lower the Ki value, the higher the affinity of the drug for the polyamine transporter (PAT) on the cell surface. Chinese hamster ovary (CHO) cells and a mutant line without an active PAT (CHO-MG) also evaluated the PAT selectivity of these drugs.\nBiological Evaluation. Once synthesized, the conjugates were screened for cytotoxicity in L1210, CHO and CHO-MG cells. L1210 (mouse leukemia) cells were selected to enable comparisons with the published IC50 and Ki values for a variety of polyamine substrates. Chinese Hamster Ovary (CHO) cells were chosen along with a mutant PAT deficient cell line (CHO-MG) in order to comment on selective transport via the PAT (Wang et al, J. Med. Chem. 2003, 46, 2663-2671; Wang et al, J. Med. Chem. 2003, 46, 2672-2682; Wang et al., J. Med. Chem. 2003, 46, 5129-5138; Delcros et al., J. Med. Chem., 2002, 45, 5098-5111).\nL1210 IC50 and Ki studies. […] The Ki values in Table 3 were determined for [^14C]spermidine uptake and reflect the affinity of the polyamine derivative for the polyamine transporter on the cell surface. With both parameters, one can determine whether high affinity for the transporter (e.g., low Ki value) translated into high cytotoxicity (e.g., low IC50 value), etc.\nBiological studies. Murine leukemia cells (L1210), CHO and CHO-MG cells were grown in RPMI medium supplemented with 10% fetal calf serum, glutamine (2 mM), penicillin (100 U/mL), streptomycin (50 μg/mL). L-Proline (2 μg/mL) was added to the culture medium for CHO-MG cells. Cells were grown at 37° C. under a humidified 5% CO2 atmosphere. Aminoguanidine (AG, 2 mM) was added to the culture medium to prevent oxidation of the drugs by the enzyme (bovine serum amine oxidase) present in calf serum. Trypan blue staining was used to determine cell viability before the initiation of a cytotoxicity experiment. Cells in early to mid log-phase were used. IC50 determinations. Cell growth was assayed in sterile 96-well microtiter plates (Becton-Dickinson, Oxnard, Calif., USA). L1210 cells were seeded at 5e^4 cells/mL of medium (100 μL/well). CHO and CHO-MG cells were plated at 2e^3 cells/mL. Drug solutions (10 μL per well) of appropriate concentration were added at the time of seeding for L1210 cells and after an overnight incubation for the CHO cell lines. After exposure to the drug for 48 hr, cell growth was determined by measuring formazan formation from 3-(4,5-dimethylthiazol-2-yl)2,5-diphenyltetrazolium using a Titertek Multiskan MCC/340 microplate reader for absorbance (540 nm) measurements (Mosmann, T., J. Immunol. Methods 1983, 65, 55-63)."}}, "note": "Read-outs that look alike come from different tables or passages of the source.", "data": [{"smiles": "NCCCNCCCN1CCCCCCCCCCCCCC1", "note": "[Compound 4a, Dihydromotuporamine C, reference compound]", "values": [{"measurement": "IC50", "setting": "[1]", "value": 10.5, "unit": "µM"}, {"measurement": "IC50 Ratio (CHO-MG/CHO), a measure of PAT selectivity", "setting": "[1]", "value": 1}, {"measurement": "IC50", "setting": "[2]", "value": 3, "unit": "µM"}, {"measurement": "Ki", "setting": "[3]", "value": 9.9, "unit": "µM"}, {"measurement": "IC50", "setting": "[4]", "value": 10, "unit": "µM"}]}, {"smiles": "NCCCNCCCNCc1c2ccccc2cc2ccccc12", "note": "[Compound 6a]", "values": [{"measurement": "inhibition at 18 µM", "setting": "[5]", "value": 60, "unit": "%"}, {"measurement": "IC50", "setting": "[1]", "value": 1.9, "unit": "µM"}, {"measurement": "IC50 Ratio (CHO-MG/CHO), a measure of PAT selectivity", "setting": "[1]", "value": 1.8}, {"measurement": "IC50", "setting": "[2]", "value": 1.8, "unit": "µM"}, {"measurement": "Ki", "setting": "[3]", "value": 33.4, "unit": "µM"}, {"measurement": "IC50", "setting": "[4]", "value": 3.4, "unit": "µM"}]}, {"smiles": "CCN(CCCCNCCCCN)Cc1c2ccccc2cc2ccccc12", "note": "[Compound 7b, N-(4-Amino-butyl)-N′-anthracen-9-ylmethyl-N′-ethyl-butane-1,4-diamine]", "values": [{"measurement": "inhibition at 18 µM", "setting": "[5]", "value": 8, "unit": "%"}, {"measurement": "IC50", "setting": "[6]", "value": 22.2, "unit": "µM"}, {"measurement": "IC50", "setting": "[1]", "value": 22.2, "unit": "µM"}, {"measurement": "IC50 Ratio (CHO-MG/CHO), a measure of PAT selectivity", "setting": "[1]", "value": 1}, {"measurement": "Ki", "setting": "[3]", "value": 24.4, "unit": "µM"}, {"measurement": "IC50", "setting": "[4]", "value": 21.9, "unit": "µM"}]}]}
